Results reported in article PMC8724943 (Translational Oncology, 2021).

Biological target: p21 activated kinase 4 (PAK4) (Homo sapiens, UniProt O96013)
Assay: in vitro radiometric kinase assay
Assay type: biochemical

p21 activated kinase 4 (PAK4), sequence (O96013 whole entry): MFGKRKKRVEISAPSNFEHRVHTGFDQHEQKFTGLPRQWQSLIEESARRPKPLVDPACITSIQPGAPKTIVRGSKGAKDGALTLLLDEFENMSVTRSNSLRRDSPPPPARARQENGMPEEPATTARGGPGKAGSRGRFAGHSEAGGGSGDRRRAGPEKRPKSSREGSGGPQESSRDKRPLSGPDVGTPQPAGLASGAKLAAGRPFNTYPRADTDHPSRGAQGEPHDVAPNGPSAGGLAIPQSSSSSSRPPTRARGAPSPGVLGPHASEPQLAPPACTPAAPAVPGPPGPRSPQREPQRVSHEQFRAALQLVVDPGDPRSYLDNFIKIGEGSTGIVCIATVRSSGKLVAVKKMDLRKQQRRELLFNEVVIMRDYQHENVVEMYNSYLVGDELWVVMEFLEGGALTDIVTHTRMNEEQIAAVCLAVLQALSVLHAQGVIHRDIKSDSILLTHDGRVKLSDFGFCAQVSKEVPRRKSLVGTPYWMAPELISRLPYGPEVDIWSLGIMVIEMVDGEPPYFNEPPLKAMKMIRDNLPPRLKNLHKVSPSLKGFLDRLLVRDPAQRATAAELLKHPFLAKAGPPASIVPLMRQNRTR

IC50: ~500 nM
Substance: PAKib
